Common to all, as to type: in vivo, human
Test [1] can be described thus: Brain subcortical volumes by MRI at school age after enteral glutamine supplementation in the first month of life. To be noted: glutamine supplemented group versus control preterm group. As for the experimental part: (§1) A randomized, placebo controlled clinical trial was performed. For a detailed protocol of the study, see van den Berg et al, 2004, Glutamine-enriched enteral nutrition in very low birth weight infants. Design of a double-blind randomised controlled trial [ISRCTN73254583], BMC Pediatrics 4:17.
(§2) In short: Infants with a gestational age <32 weeks and/or birth weight <1500 g were enrolled. […] Also comparisons were made with a control group (n=52) of term born infants.
(§3) The two powders were indistinguishable by appearance, colour and smell. […] Initially, the supplementation dose was based on birth weight. After 2 weeks the dose was adjusted to actual body weight. Two members of the nursing staff daily added supplementation to breast milk or to preterm formula (Nenatal®, Nutricia Nederland B. V., Zoetermeer, The Netherlands), according to the parents' choice. Per 100 ml, Nenatal® provides 78 kcal, 2.1 g protein (casein-whey protein weight ratio 40:60), 4.4 g fat and 7.5 g carbohydrate. […] Protocol guidelines for the introduction of parenteral and enteral nutrition are disclosed in van den Berg et al., 2004.
(§4) All statistical analyses are performed on an intention to treat basis. […]
Brain subcortical volumes were determined by MRI and calculated using FSL software “FAST” and corrected for age at MRI scan, gender and body weight for gestational age.

The nature of test [2]: Brain cortical volumes by MRI at school age after enteral glutamine supplementation in the first month of life. To be noted: glutamine supplemented group versus control preterm group. As to the method:
as §1, §2, §3, §4
Brain cortical volumes were determined by MRI and calculated using FSL software “FAST” and corrected for age at MRI scan, gender and body weight for gestational age.

Test [3] in a line: Intellectual development (WISC-III short form, FSIQ) in preterm children born small for gestational age. To be noted: SGA glutamine group versus SGA control group, n=9 each. As for the experimental part: A subgroup of infants born small for gestational age (SGA <10th percentile) was identified and analysed separately. Intellectual development was analysed in this subgroup of infants by a short form of the Wechsler Intelligence Scale for Children-III (WISC-III), including the subtests Vocabulary and Block Design. Both subtests correlate strongly (r 0.90) with full-scale intelligence quotient (FSIQ). Scores on this test were normalised with a mean of 100 (SD 15). A group of nine SGA infants that received placebo was compared with a group of nine SGA infants that received glutamine treatment.

`NC(=O)CC[C@H](N)C(=O)O` [Glutamine, L-glutamine]: in test [1], the “Brain stem volume compared to preterm control group (in words)” value is “significantly higher” and the “Hippocampus volume compared to preterm control group (in words)” value was “significantly higher”. In addition, the “White matter volume compared to preterm control group (in words)” value in test [2] was “significantly higher”. In test [3], the “IQ compared to SGA control group (in words)” value is listed as “significant improvement”.
